Experimental data reported in patent US9340500B2, “Aromatic heterocyclic derivative having TRPV4-inhibiting activity” (SHIONOGI & CO., LTD., priority 2011, dated 2016).
≈ marks a conversion by molar mass, not a printed value.

Target: T1, human TRPV4 (Homo sapiens (Human), UniProt Q9HBA0)
Experiment: Test Example 3: measurement of TRPV4 inhibitory activity (Fluo-3, FDSS 3000, 4α-PDD)
Format: cell-based
Settings: hTRPV4/CHO cells, calculated from IC50 and 4α-PDD EC50
Procedure: (§1) For each compound, TRPV4 inhibitory activity was measured using cells.
(§2) (1) The TRPV4 inhibitory activity was measured using CHO-K1 cells stably expressing human TRPV4 (hTRPV4/CHO cells).
(2) Frozen cells were thawed and subcultured with the medium (MEM-α, 10% FBS, […], 50 unit/mL penicillin, 50 μg/mL streptomycin, 1 mg/mL G418).
(3) The 96-well plates which hTRPV4/CHO cells were seeded at densities of 2×10^4 cells/well in the culture medium and cultured in a CO2 incubator in the presence of 5% CO2 at 37° C. for 24 h was used as assay plates.
(4) The assay plate was washed with assay buffer (Hanks, […], […], pH7.4).
(5) Fluo-3, fluorescent dye for Ca influx assay was added to each well, then the assay plate was incubated in a CO2 incubator in the presence of 5% CO2 at 37° C. for one hour (final conc.; 5 μmmol/L Fluo-3).
(6) The assay plate was washed with the assay buffer, and the buffer was remained at 30 μL/well. Then the assay plate was incubated for 10 min at 37° C.
(7) Diluted compound solution was dispensed to each well in the compound plate, and mixed with built-in Pipette and Mixer of the fluorescence analysis system FDSS 3000 (Hamamatsu Photonics).
(8) 50 μL of 4α-PDD solution (concluding 0.1% Pluronic F-127) was applied to each well of assay plate and mixed.
(9) The fluorescent intensity was measured by FDSS 3000 for 8 min from the point of time addition the compound solution, at Ex 480 nm, Em 540 nm wavelength.
TRPV4 inhibitory activity (Ki value) of a compound was evaluated according to the following procedure.
(10) In the presence of the compound, the difference between maximal and minimal of fluorescent intensity value for 8 min from just before addition of 4α-PDD solution was calculated, and it was referred as Max-Min value. Max-Min value of the Ruthenium Red at 10 μM was defined as 100% inhibitory activity, Max-Min value in the absence of the compound was defined as 0% inhibitory activity. The TRPV4 inhibitory activity of the compound was calculated by the following formula. (1−(Max-Min value of the compound−100% inhibitory activity)/(0% inhibitory activity−100% inhibitory activity))×100 (11) By the following formula, inhibitory activity was calculated at 10 points with three fold serial dilution, in the final concentration of the compound from 10 μmmol/L to 0.5 nmol/L. The IC50 value was calculated by dose-response curve. 100−[(fluorescent intensity in the presence of the compound−fluorescent intensity of back ground)/(total fluorescent intensity−fluorescent intensity of back ground)]×100 (12) In the presence of the compound, activity of 4α-PDD was measured at 9 points with three fold serial dilution from 20 μmol/L. Activity of 4α-PDD was calculated by the following formula. (Max-Min value of the each 4α-PDD concentration−0% activity)/(100% activity−0% activity))×100 (13) Effective activity was calculated in 4α-PDD the above. The EC50 value was calculated by dose-response curve. (14) The Ki value of a compound was calculated by the following formula. Ki (nmol/L)=IC50 value (nmol/L)/([A]/EC50 value (nmol/L)) [A]; Concentration of agonist (nmol/L)

T1 sequence (Q9HBA0 whole entry): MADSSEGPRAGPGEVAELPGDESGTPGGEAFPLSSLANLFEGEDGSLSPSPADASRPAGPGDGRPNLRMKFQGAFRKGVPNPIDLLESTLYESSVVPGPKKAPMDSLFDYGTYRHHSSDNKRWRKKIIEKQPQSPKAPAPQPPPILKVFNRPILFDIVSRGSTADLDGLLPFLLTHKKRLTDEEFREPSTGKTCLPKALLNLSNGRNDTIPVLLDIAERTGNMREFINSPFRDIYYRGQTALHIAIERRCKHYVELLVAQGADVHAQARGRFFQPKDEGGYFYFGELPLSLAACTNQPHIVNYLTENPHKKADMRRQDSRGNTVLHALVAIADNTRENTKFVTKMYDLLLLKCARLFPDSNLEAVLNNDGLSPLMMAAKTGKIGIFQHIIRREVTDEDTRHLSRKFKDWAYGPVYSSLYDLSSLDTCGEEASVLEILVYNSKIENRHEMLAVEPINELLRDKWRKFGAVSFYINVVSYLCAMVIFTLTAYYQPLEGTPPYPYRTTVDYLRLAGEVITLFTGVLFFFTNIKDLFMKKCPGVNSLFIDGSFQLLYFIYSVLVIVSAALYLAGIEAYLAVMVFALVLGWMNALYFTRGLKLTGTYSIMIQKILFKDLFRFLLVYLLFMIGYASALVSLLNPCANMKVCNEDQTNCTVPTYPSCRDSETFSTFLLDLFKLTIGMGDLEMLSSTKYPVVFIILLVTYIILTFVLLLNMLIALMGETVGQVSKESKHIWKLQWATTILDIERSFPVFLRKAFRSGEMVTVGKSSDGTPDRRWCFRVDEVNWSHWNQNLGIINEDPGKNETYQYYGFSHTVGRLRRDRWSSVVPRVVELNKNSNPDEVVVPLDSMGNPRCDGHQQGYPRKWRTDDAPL

| Structure (SMILES) | Ki [nM] |
| --- | --- |
| Cc1c(C(=O)Nc2ccc(Cl)cn2)cc(-c2ccccc2)n1CCCN1CCOCC1 [Compound I-004] | 1570 |
| CCOC(=O)Cc1csc(NC(=O)c2cc(-c3ccccc3)n(CCCN3CCOCC3)c2C)n1 [Compound I-005] | 1700 |
| Cc1c(C(=O)Nc2cccc(C(F)(F)F)c2)cc(-c2ccccc2)n1CCCO [Compound I-006] | 1060 |
| Cc1c(C(=O)Nc2cccc(C(F)(F)F)c2)cc(-c2ccccc2)n1CCCN1CCCCC1 [Compound I-008] | 327 |
| COCCCn1c(-c2ccccc2)cc(C(=O)Nc2cccc(C(F)(F)F)c2)c1C [Compound I-010] | 714 |
| CC(=O)N1CCN(CCCn2c(-c3ccccc3)cc(C(=O)Nc3cccc(C(F)(F)F)c3)c2C)CC1 [Compound I-015] | 1440 |
| Cc1cc(C(=O)Nc2cccc(C(F)(F)F)c2)c(C)n1CCCN1CCOCC1 [Compound I-017] | 1560 |
| Cc1c(C(=O)Nc2ccc(C(F)(F)F)cc2)cc(-c2ccccc2)n1CCCN1CCOCC1 [Compound I-024] | 755 |
| CC(=O)NCCCn1c(-c2ccccc2)cc(C(=O)Nc2cccc(C(F)(F)F)c2)c1C [Compound I-025] | 1130 |
| COC(=O)NCCCn1c(-c2ccccc2)cc(C(=O)Nc2cccc(C(F)(F)F)c2)c1C [Compound I-027] | 936 |
| O=C(Nc1cccc(C(F)(F)F)c1)c1cc(-c2ccccc2)n(CCCN2CCOCC2)c1C(F)(F)F [Compound I-028] | 1710 |
| Cc1c(C(=O)Nc2cccc(C(F)(F)F)c2)cc(-c2ccccc2)n1CCCN(C)CC(C)C [Compound I-032] | 1610 |
| Cc1c(C(=O)Nc2cccc(C(F)(F)F)c2)cc(-c2ccccc2)n1CCCN(C)CC1CC1 [Compound I-033] | 655 |
| Cc1c(C(=O)Nc2cccc(C(F)(F)F)c2)cc(-c2ccccc2)n1CCCN(C)CC(C)(C)CN(C)C [Compound I-038] | 352 |

Target: T1, human TRPV4
Experiment: Test Example 1: measurement of TRPV4 inhibitory activity (Fluo 4-AM, FLIPR TETRA, 4α-PDD 1 μmol/L)
Format: cell-based
Settings: hTRPV4/CHO cells, 4α-PDD 1 μmol/L
Procedure: as §1, §2
(2) In the day before the experimental day, frozen cell were thawed and washed with the culture medium (MEM-α, 10% FBS, 2 mmol/L GlutaMax, 50 unit Penicillin, 50 μg/mL Streptomycin). Then cells were suspended in the culture medium.
(3) The 384-well plates which hTRPV4/CHO cells were seeded at densities of 4000 cells/well in the culture medium and cultured in a CO2 incubator in the presence of 5% CO2 at 37° C. for overnight was used as assay plates.
(4) The assay plate was washed with assay buffer (Hanks, 20 mmol/L HEPES, 2.5 mmol/L probenecid, pH7.4), and the buffer were remained at 20 μL/well.
(5) 10 μl of dye loading buffer (9 μmol/L Fluo 4-AM, 0.09% Pluronic F-127/assay buffer) was added to each well, then the assay plate was incubated in a CO2 incubator in the presence of 5% CO2 at 37° C. for one hour. (final 3 μmol/L Fluo4-AM).
(6) The assay plate was washed with the assay buffer, and the buffers were remained at 20 μL/well. Then the assay plate was incubated for 10 min at room temperature.
(7) Diluted compound solution was dispensed to each well in the compound plate, and mixed with built-in Pipette and Mixer of the Fluorescence analysis system FLIPR TETRA (Molecular devices).
(8) After incubation for 5 min, 20 μL of 4α-PDD solution were applied to each well of assay plate and mixed with the FLIPR TETRA. (final 1 μmol/L 4α-PDD)
(9) The fluorescent intensity was measured with FLIPR TETRA system for 10 min from the point of time addition the compound solution, at Ex 470-495 nm, Em 515-575 nm wavelength.
TRPV4 inhibitory activity (IC50 value and Ki value) of a compound was evaluated according to the following procedure.
(10) In the presence of the compound, the difference between maximal and minimal of fluorescent intensity value for 5 min from just before addition of 4α-PDD solution was calculated, and it was referred as Max-Min value. Max-Min value of the Ruthenium Red at 20 μM was defined as 100% inhibitory activity, Max-Min value in the absence of the compound was defined as 0% inhibitory activity. The TRPV4 inhibitory activity of the compound was calculated by the following formula. (1−(Max-Min value of the compound−100% inhibitory activity)/(0% inhibitory activity−100% inhibitory activity))×100 (11) Inhibitory activity was calculated at 10 points with three fold serial dilution, in the final concentration of the compound from 10 μmmol/L to 0.5 nmol/L, the IC50 value was calculated by logistic approximation method. (12) In the absence of the compound, the fluorescent intensity was measured as the same method with 10, 1, 0.5, 0.2, and 0 μmol/L as final concentration of 4α-PDD. The difference of minimal and maximal fluorescent intensity value for 5 min from just before addition of 4α-PDD solution was calculated, and it was referred as Max-Min value. Max-Min value of the 4α-PDD at 10 μmol/L was defined as 100% activity, Max-Min value in the absence of 4α-PDD was defined as 0% activity. The TRPV4 activity of each concentration of 4α-PDD was calculated by the following formula. (Max-Min value of the each 4α-PDD concentration−0% activity)/(100% activity−0% activity))×100 (13) Effective activity was calculated in 5 concentrations of 4α-PDD the above. The EC50 value was calculated by logistic approximation method. The Ki value of a compound was calculated by the following formula. Ki (nmol/L)=IC50 value (nmol/L)/(1+[…] (test 4α-PDD concentration (nmol/L)/EC50 value (nmol/L))

| Structure (SMILES) | IC50 [nM] |
| --- | --- |
| Cc1c(C(=O)Nc2cccc(C(F)(F)F)c2)cc(-c2ccccc2)n1CCCO [Compound I-006] | 2300 |
| Cc1c(C(=O)Nc2cccc(C(F)(F)F)c2)cc(-c2ccccc2)n1CCCN1CCCCC1 [Compound I-008] | 82 |
| COCCCn1c(-c2ccccc2)cc(C(=O)Nc2cccc(C(F)(F)F)c2)c1C [Compound I-010] | 800 |
| CC(=O)N1CCN(CCCn2c(-c3ccccc3)cc(C(=O)Nc3cccc(C(F)(F)F)c3)c2C)CC1 [Compound I-015] | 2600 |
| Cc1c(C(=O)Nc2ccc(C(F)(F)F)cc2)cc(-c2ccccc2)n1CCCN1CCOCC1 [Compound I-024] | 340 |
| CC(=O)NCCCn1c(-c2ccccc2)cc(C(=O)Nc2cccc(C(F)(F)F)c2)c1C [Compound I-025] | 3200 |
| COC(=O)NCCCn1c(-c2ccccc2)cc(C(=O)Nc2cccc(C(F)(F)F)c2)c1C [Compound I-027] | 1800 |
| O=C(Nc1cccc(C(F)(F)F)c1)c1cc(-c2ccccc2)n(CCCN2CCOCC2)c1C(F)(F)F [Compound I-028] | 3800 |
| Cc1c(C(=O)Nc2cccc(C(F)(F)F)c2)cc(-c2ccccc2)n1CCCN(C)CC(C)C [Compound I-032] | 640 |

System: not listed separately
Experiment: Solubility test
Format: physicochemical
Settings: artificial intestinal juice (phosphate buffer) with 1% DMSO, fassgf or other biorelevant, kinetic from dmso stock, artificial intestinal juice pH 6.8, 16 hours at 25° C.
Procedure: The solubility of each compound is determined under 1% DMSO addition conditions. A 10 mmol/L solution of the compound is prepared with DMSO, and 6 μL of the compound solution is added to 594 μL of an artificial intestinal juice (water and 118 mL of 0.2 mol/L NaOH reagent are added to 250 mL of 0.2 mol/L potassium dihydrogen phosphate reagent to reach 1000 mL) with a pH of 6.8. The mixture is left standing for 16 hours at 25° C., and the mixture is vacuum-filtered. The filtrate is two-fold diluted with methanol/water=1/1, and the compound concentration in the filtrate is measured with HPLC or LC/MS/MS by the absolute calibration method.

| Structure (SMILES) | solubility at 16 h [µM] |
| --- | --- |
| Cc1c(C(=O)Nc2ccc(Cl)cn2)cc(-c2ccccc2)n1CCCN1CCOCC1 [Compound I-004] | 39.2 (≈ 17.2 µg/mL) |
| CCOC(=O)Cc1csc(NC(=O)c2cc(-c3ccccc3)n(CCCN3CCOCC3)c2C)n1 [Compound I-005] | > 50 |
| Cc1cc(C(=O)Nc2cccc(C(F)(F)F)c2)c(C)n1CCCN1CCOCC1 [Compound I-017] | > 50 |
| Cc1c(C(=O)Nc2cccc(C(F)(F)F)c2)cc(-c2ccccc2)n1CCCN(C)CC1CC1 [Compound I-033] | 26.8 (≈ 12.6 µg/mL) |
| Cc1c(C(=O)Nc2cccc(C(F)(F)F)c2)cc(-c2ccccc2)n1CCCN(C)CC(C)(C)CN(C)C [Compound I-038] | > 50 |
